Columns and labels:
Experiment in all cases: Ras-Raf disruption/FRET/MOA assay (BRAF RBD, Cyclophilin A)
Assay type in all cases: biochemical
KRAS Q61H = KRAS Q61H (Homo sapiens (Human), UniProt P01116+P62937, Q61H)
Outline: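 25 μM tagless Cyclophilin A, 12.5 nM His6-Ras-GMPPNP and 50 nM GST-BRAF RBD in HEPES pH 7.3 buffer with 5 mM MgCl2, with compound (10-point 3-fold series from 30 μM final) for 3 h at 25 °C. Anti-His Eu and anti-GST APC then added for 1.5 h. IC50 from TR-FRET ratio decrease versus DMSO.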

NRAS Q61R = NRAS Q61R (Homo sapiens (Human), UniProt P01111+P62937, Q61R)
Sequence of NRAS Q61R (P01111 whole entry Q61R): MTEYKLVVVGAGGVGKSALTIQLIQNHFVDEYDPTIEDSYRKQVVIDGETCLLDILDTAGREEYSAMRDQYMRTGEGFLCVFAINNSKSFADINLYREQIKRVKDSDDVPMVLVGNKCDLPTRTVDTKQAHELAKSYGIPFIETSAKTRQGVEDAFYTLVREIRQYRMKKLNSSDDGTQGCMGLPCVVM
Sequence of NRAS Q61R (P62937 whole entry): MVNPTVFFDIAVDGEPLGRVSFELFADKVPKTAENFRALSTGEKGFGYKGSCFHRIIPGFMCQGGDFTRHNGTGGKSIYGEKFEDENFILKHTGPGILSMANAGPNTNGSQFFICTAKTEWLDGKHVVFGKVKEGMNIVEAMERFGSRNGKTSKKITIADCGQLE
Outline: (§1)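 First, 25 μM Cyclophilin A, 12.5 nM His6-Ras-GMPPNP and 50 nM GST-BRAF RBD are mixed with diluted compound at pH 7.3. Next, 3 h at 25° C. Then 10 nM anti-His Eu-W1024 plus 50 nM anti-GST allophycocyanin for 1.5 h before TR-FRET reading.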

NRAS WT = NRAS WT (Homo sapiens (Human), UniProt P01111+P62937)
Sequence of NRAS WT (P01111 whole entry): as the sequence (P01111 whole entry Q61R) above, with R61Q counted along it
Sequence of NRAS WT (P62937 whole entry): as the sequence (P62937 whole entry) above
Outline: as §1

NRAS Q61K = NRAS Q61K (Homo sapiens (Human), UniProt P01111+P62937, Q61K)
Sequence of NRAS Q61K (P01111 whole entry Q61K): as the sequence (P01111 whole entry Q61R) above, with R61K counted along it
Sequence of NRAS Q61K (P62937 whole entry): as the sequence (P62937 whole entry) above
Outline: as §1

Sequence of KRAS Q61H (P01116 other isoform, or with tags, fused parts or gaps Q61H): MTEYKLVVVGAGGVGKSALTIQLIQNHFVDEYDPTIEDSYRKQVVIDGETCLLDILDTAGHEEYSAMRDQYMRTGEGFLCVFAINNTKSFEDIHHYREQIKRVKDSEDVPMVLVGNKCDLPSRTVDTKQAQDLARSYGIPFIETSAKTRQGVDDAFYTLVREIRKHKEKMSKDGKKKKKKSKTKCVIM
Sequence of KRAS Q61H (P62937 whole entry): as the sequence (P62937 whole entry) above

| SMILES | IC50 (KRAS Q61H) [nM] | IC50 (NRAS Q61R) [nM] | IC50 (NRAS WT) [nM] | IC50 (NRAS Q61K) [nM] |
| --- | --- | --- | --- | --- |
| CCn1c(-c2cccnc2[C@H](C)OC)c2c3cc(ccc31)-c1csc(n1)C[C@H](NC(=O)[C@H](C(C)C)N1C[C@@H](c3ccccc3)CC1=O)C(=O)N1CCC[C@H](N1)C(=O)OCC(C)(C)C2 (single isomer, unassigned) [Compound A544] | 100 to 1000 | 1000 to 10000 | 1000 to 10000 | 100 to 1000 |
| CCn1c(-c2cccnc2[C@H](C)OC)c2c3cc(ccc31)-c1cccc(c1)C[C@H](NC(=O)[C@H](C(C)C)N(C)C(C)=O)C(=O)N1CCC[C@H](N1)C(=O)OCC(C)(C)C2 [Compound A61] | 100 to 1000 | 1000 to 10000 | 1000 to 10000 | 1000 to 10000 |
| CCn1c(-c2cccnc2[C@H](C)OC)c2c3cc(ccc31)-c1cc(O)cc(c1)C[C@H](NC(=O)[C@@H]1[C@H]3C[C@H]3CN1C(C)=O)C(=O)N1CCC[C@H](N1)C(=O)OCC(C)(C)C2 [Compound A207] | 100 to 1000 | 1000 to 10000 | 1000 to 10000 | 1000 to 10000 |
| CCn1c(-c2cccnc2[C@H](C)OC)c2c3cc(ccc31)-c1csc(n1)C[C@H](NC(=O)[C@H](C(C)C)N(C)C(=O)[C@H]1CCN(S(C)(=O)=O)C1)C(=O)N1CCC[C@H](N1)C(=O)OCC(C)(C)C2 [Compound A237] |  | 1000 to 10000 | 1000 to 10000 | 1000 to 10000 |
| CCn1c(-c2cccnc2[C@H](C)OC)c2c3cc(ccc31)-c1csc(n1)C[C@H](NC(=O)[C@H](C(C)C)N(C)C(=O)N1CCN(C(C)=O)CC1)C(=O)N1CCC[C@H](N1)C(=O)OCC(C)(C)C2 [Compound A291] | 10 to 100 |  | 10 to 100 |  |
| CCn1c(-c2cccnc2[C@H](C)OC)c2c3cc(ccc31)-c1cc(O)cc(c1)C[C@H](NC(=O)[C@@H]1[C@@H](C)CCCN1C(C)=O)C(=O)N1CCC[C@H](N1)C(=O)OCC(C)(C)C2 [Compound A324] | 10 to 100 | 1000 to 10000 | 100 to 1000 | 100 to 1000 |
| CCn1c(-c2cccnc2[C@H](C)OC)c2c3cc(ccc31)-c1csc(n1)C[C@H](NC(=O)C1(F)CCC1)C(=O)N1CCC[C@H](N1)C(=O)OCC(C)(C)C2 [Compound A361] | 100 to 1000 | 100 to 1000 | 100 to 1000 | 100 to 1000 |
| CCn1c(-c2cccnc2[C@H](C)OC)c2c3cc(ccc31)-c1csc(n1)C[C@H](NC(=O)C1(F)CC1)C(=O)N1CCC[C@H](N1)C(=O)OCC(C)(C)C2 [Compound A362] | 100 to 1000 | 1000 to 10000 | 100 to 1000 | 100 to 1000 |
| CCn1c(-c2cccnc2[C@H](C)OC)c2c3cc(ccc31)-c1cc(O)cc(c1)C[C@H](NC(=O)[C@H](C(C)C)N(C)C(=O)C13CC(CO1)C3)C(=O)N1CCC[C@H](N1)C(=O)OCC(C)(C)C2 [Compound A406] | 10 to 100 | 100 to 1000 | 10 to 100 | 100 to 1000 |
| CCn1c(-c2cccnc2[C@H](C)OC)c2c3cc(ccc31)-c1cc(O)cc(c1)C[C@H](NC(=O)[C@H](C(C)C)N(C)C(=O)C1CCC3(CCOC3)O1)C(=O)N1CCC[C@H](N1)C(=O)OCC(C)(C)C2 (some centres unmarked) [Compound A409] | 10 to 100 | 100 to 1000 | 10 to 100 |  |
| CCn1c(-c2cc(N3CCN(C)CC3)cnc2[C@H](C)OC)c2c3cc(ccc31)-c1csc(n1)C[C@H](NC(=O)[C@H](C(C)C)N(C)C(=O)[C@H]1CCCS1(=O)=O)C(=O)N1CCC[C@H](N1)C(=O)OCC(C)(C)C2 [Compound A439] | 100 to 1000 | 100 to 1000 | 100 to 1000 | 100 to 1000 |
| CCn1c(-c2cc(N3CCN(C)CC3)cnc2[C@H](C)OC)c2c3cc(ccc31)-c1csc(n1)C[C@H](NC(=O)[C@H](C(C)C)N(C)C(=O)[C@@H]1CCCS1(=O)=O)C(=O)N1CCC[C@H](N1)C(=O)OCC(C)(C)C2 [Compound A440] | 100 to 1000 | 100 to 1000 | 100 to 1000 | 100 to 1000 |
| CCn1c(-c2cccnc2[C@H](C)OC)c2c3cc(ccc31)-c1csc(n1)C[C@H](NC(=O)[C@H](C(C)C)N(C)C(=O)N1C[C@@H]3OCCN(C)[C@@H]3C1)C(=O)N1CCC[C@H](N1)C(=O)OCC(C)(C)C2 [Compound A444] | 10 to 100 | 100 to 1000 | 100 to 1000 |  |

Source: patent US20250195521A1 (Revolution Medicines, Inc., priority 2020, published 2025)
